Reference: paper PMC12707346, “Discovery and validation of small molecule stabilizers of mutant triose phosphate isomerase (TPI) as potential lead candidates for TPI deficiency” (SLAS discovery : advancing life sciences R & D, 2025)
Several values for one entry are separate records, joined by “and”; a condition that tells them apart may be missing. Identical values can stand only once. Like-named read-outs stand apart in the source and are kept apart here.

Assay: Tissue distribution study in mice, 20 mg/kg i.p.
Assay type: in vivo, C57BL/6 J mice
Conditions: mouse; for Plasma or Tissue Homogenate Conc (individual animals) / concentration at 0.5 h / concentration at 1 h / concentration at 2 h / concentration at 4 h / concentration at 8 h: 20 mg/kg
Description: Male C57BL/6 J (Jackson Laboratories) wild type mice (age: 40–60 days) weighing 25–30 g, were used for the tissue distribution study. Mice were randomly assigned in two groups: blank (n = 1) and treatment. The treatment group received 20 mg/kg compound 424 intraperitoneally (n = 15; 3 animals per time point i.e., 0.5, 1, 2, 4, and 8 h). Molport 002–877–424 was formulated in a vehicle consisting of 20 % DMSO, 50 % PEG300, and 30 % sterile water. At each time point animals were euthanized via isoflurane overdose. Blood was collected in ETDA-coated tubes at each time points and centrifuged at 15,000 x g for 5 min. The separated plasma was stored at −80 °C. Following blood collection, liver, kidney, skeletal muscle and brain were isolated, rinsed in normal saline and approximately 100 mg of tissues were snap-frozen and stored at −80 °C. All plasma and tissue samples were shipped on dry ice to Touchstone Biosciences for further analysis. Sample preparation and analysis was performed at Touchstone Biosciences exactly as described in [20].

Q: What does the source list for `c1ccc(-c2nnc(-c3ccccn3)nc2NC2CCCCC2)cc1` [MolPort-002-877-424, C1CCC(CC1)Nc2nc(nnc2c3ccccc3)c4ccccn4]?
A: Plasma or Tissue Homogenate Conc (individual animals) (Brain, 0.5 h, IP 20 mg/kg): 391 ng/mL and 321 ng/mL; Plasma or Tissue Homogenate Conc (individual animals) (Brain, 1 h, IP 20 mg/kg): 323 ng/mL and 318 ng/mL; Plasma or Tissue Homogenate Conc (individual animals) (Brain, 2 h, IP 20 mg/kg): 160 ng/mL and 129 ng/mL; Plasma or Tissue Homogenate Conc (individual animals) (Brain, 4 h, IP 20 mg/kg): 69.3 ng/mL and 59.0 ng/mL; Plasma or Tissue Homogenate Conc (individual animals) (Brain, 8 h, IP 20 mg/kg): 29.7 ng/mL and 17.1 ng/mL; Plasma or Tissue Homogenate Conc (individual animals) (Kidney, 0.5 h, IP 20 mg/kg): 2870 ng/mL and 2290 ng/mL; Plasma or Tissue Homogenate Conc (individual animals) (Kidney, 1 h, IP 20 mg/kg): 2330 ng/mL and 2470 ng/mL; Plasma or Tissue Homogenate Conc (individual animals) (Kidney, 2 h, IP 20 mg/kg): 1240 ng/mL and 925 ng/mL; Plasma or Tissue Homogenate Conc (individual animals) (Kidney, 4 h, IP 20 mg/kg): 538 ng/mL and 466 ng/mL; Plasma or Tissue Homogenate Conc (individual animals) (Kidney, 8 h, IP 20 mg/kg): 239 ng/mL and 196 ng/mL; Plasma or Tissue Homogenate Conc (individual animals) (Liver, 0.5 h, IP 20 mg/kg): 3410 ng/mL and 3100 ng/mL; Plasma or Tissue Homogenate Conc (individual animals) (Liver, 1 h, IP 20 mg/kg): 3010 ng/mL and 3640 ng/mL; Plasma or Tissue Homogenate Conc (individual animals) (Liver, 2 h, IP 20 mg/kg): 1750 ng/mL and 1580 ng/mL; Plasma or Tissue Homogenate Conc (individual animals) (Liver, 4 h, IP 20 mg/kg): 777 ng/mL and 744 ng/mL; Plasma or Tissue Homogenate Conc (individual animals) (Liver, 8 h, IP 20 mg/kg): 311 ng/mL and 303 ng/mL; Plasma or Tissue Homogenate Conc (individual animals) (Muscle, 0.5 h, IP 20 mg/kg): 648 ng/mL and 456 ng/mL; Plasma or Tissue Homogenate Conc (individual animals) (Muscle, 1 h, IP 20 mg/kg): 354 ng/mL and 480 ng/mL; Plasma or Tissue Homogenate Conc (individual animals) (Muscle, 2 h, IP 20 mg/kg): 206 ng/mL and 218 ng/mL; Plasma or Tissue Homogenate Conc (individual animals) (Muscle, 4 h, IP 20 mg/kg): 92.1 ng/mL and 94.2 ng/mL; Plasma or Tissue Homogenate Conc (individual animals) (Muscle, 8 h, IP 20 mg/kg): 39.8 ng/mL and 33.3 ng/mL; Plasma or Tissue Homogenate Conc (individual animals) (Plasma, 0.5 h, IP 20 mg/kg): 10300 ng/mL and 8770 ng/mL; Plasma or Tissue Homogenate Conc (individual animals) (Plasma, 1 h, IP 20 mg/kg): 8560 ng/mL and 11200 ng/mL; Plasma or Tissue Homogenate Conc (individual animals) (Plasma, 2 h, IP 20 mg/kg): 4380 ng/mL and 4500 ng/mL; Plasma or Tissue Homogenate Conc (individual animals) (Plasma, 4 h, IP 20 mg/kg): 2660 ng/mL and 1990 ng/mL; Plasma or Tissue Homogenate Conc (individual animals) (Plasma, 8 h, IP 20 mg/kg): 1310 ng/mL and 925 ng/mL; Kp (male, C57BL/6 J, brain, ip, 20 mg/kg i.p., read-out: mean tissue to plasma ratios (brain)): ≤ 0.134; Kp at 0.5 h (male, C57BL/6J, kidney/plasma, Kidney, 0.5 h, IP 20 mg/kg, read-out: Mean Tissue/ Plasma Conc Ratio): 0.94; Kp at 0.5 h (male, C57BL/6J, liver/plasma, Liver, 0.5 h, IP 20 mg/kg, read-out: Mean Tissue/ Plasma Conc Ratio): 1.38; Kp at 1 h (male, C57BL/6J, liver/plasma, Liver, 1 h, IP 20 mg/kg, read-out: Mean Tissue/ Plasma Conc Ratio): 1.33; Kp at 2 h (male, C57BL/6J, liver/plasma, Liver, 2 h, IP 20 mg/kg, read-out: Mean Tissue/ Plasma Conc Ratio): 1.3; Kp at 4 h (male, C57BL/6J, liver/plasma, Liver, 4 h, IP 20 mg/kg, read-out: Mean Tissue/ Plasma Conc Ratio): 1.25; Kp at 8 h (male, C57BL/6J, liver/plasma, Liver, 8 h, IP 20 mg/kg, read-out: Mean Tissue/ Plasma Conc Ratio): 1.06; concentration at 0.5 h (male, C57BL/6 J, brain homogenate, ip, Brain, 0.5 h, IP 20 mg/kg, read-out: Mean Plasma or Tissue Homogenate Conc): 350 ng/mL; concentration at 0.5 h (male, C57BL/6 J, brain homogenate, ip, Brain, 0.5 h, IP 20 mg/kg, read-out: Plasma or Tissue Homogenate Conc (individual animals)): 339 ng/mL; concentration at 1 h (male, C57BL/6 J, brain homogenate, ip, Brain, 1 h, IP 20 mg/kg, read-out: Mean Plasma or Tissue Homogenate Conc): 276 ng/mL; concentration at 1 h (male, C57BL/6 J, brain homogenate, ip, Brain, 1 h, IP 20 mg/kg, read-out: Plasma or Tissue Homogenate Conc (individual animals)): 186 ng/mL; concentration at 2 h (male, C57BL/6 J, brain homogenate, ip, Brain, 2 h, IP 20 mg/kg, read-out: Mean Plasma or Tissue Homogenate Conc): 136 ng/mL; concentration at 2 h (male, C57BL/6 J, brain homogenate, ip, Brain, 2 h, IP 20 mg/kg, read-out: Plasma or Tissue Homogenate Conc (individual animals)): 118 ng/mL; concentration at 4 h (male, C57BL/6 J, brain homogenate, ip, Brain, 4 h, IP 20 mg/kg, read-out: Mean Plasma or Tissue Homogenate Conc): 57.5 ng/mL; concentration at 4 h (male, C57BL/6 J, brain homogenate, ip, Brain, 4 h, IP 20 mg/kg, read-out: Plasma or Tissue Homogenate Conc (individual animals)): 44.1 ng/mL; concentration at 8 h (male, C57BL/6 J, brain homogenate, ip, Brain, 8 h, IP 20 mg/kg, read-out: Mean Plasma or Tissue Homogenate Conc): 22.3 ng/mL; concentration at 8 h (male, C57BL/6 J, brain homogenate, ip, Brain, 8 h, IP 20 mg/kg, read-out: Plasma or Tissue Homogenate Conc (individual animals)): 20.2 ng/mL; concentration at 0.5 h (male, C57BL/6 J, brain, ip, Brain, 0.5 h, IP 20 mg/kg, read-out: Mean Tissue): 1400 ng/g; concentration at 1 h (male, C57BL/6 J, brain, ip, Brain, 1 h, IP 20 mg/kg, read-out: Mean Tissue): 1100 ng/g; concentration at 2 h (male, C57BL/6 J, brain, ip, Brain, 2 h, IP 20 mg/kg, read-out: Mean Tissue): 543 ng/g; concentration at 4 h (male, C57BL/6 J, brain, ip, Brain, 4 h, IP 20 mg/kg, read-out: Mean Tissue): 230 ng/g; concentration at 8 h (male, C57BL/6 J, brain, ip, Brain, 8 h, IP 20 mg/kg, read-out: Mean Tissue): 89.3 ng/g; concentration at 0.5 h (male, C57BL/6J, kidney homogenate, ip, Kidney, 0.5 h, IP 20 mg/kg, read-out: Mean Plasma or Tissue Homogenate Conc): 2460 ng/mL; concentration at 0.5 h (male, C57BL/6J, kidney homogenate, ip, Kidney, 0.5 h, IP 20 mg/kg, read-out: Plasma or Tissue Homogenate Conc (individual animals)): 2210 ng/mL; concentration at 1 h (male, C57BL/6 J, kidney homogenate, ip, Kidney, 1 h, IP 20 mg/kg, read-out: Mean Plasma or Tissue Homogenate Conc): 2130 ng/mL; concentration at 1 h (male, C57BL/6 J, kidney homogenate, ip, Kidney, 1 h, IP 20 mg/kg, read-out: Plasma or Tissue Homogenate Conc (individual animals)): 1580 ng/mL; concentration at 2 h (male, C57BL/6 J, kidney homogenate, ip, Kidney, 2 h, IP 20 mg/kg, read-out: Mean Plasma or Tissue Homogenate Conc): 1020 ng/mL; concentration at 2 h (male, C57BL/6 J, kidney homogenate, ip, Kidney, 2 h, IP 20 mg/kg, read-out: Plasma or Tissue Homogenate Conc (individual animals)): 889 ng/mL; concentration at 4 h (male, C57BL/6 J, kidney homogenate, ip, Kidney, 4 h, IP 20 mg/kg, read-out: Mean Plasma or Tissue Homogenate Conc): 439 ng/mL; concentration at 4 h (male, C57BL/6 J, kidney homogenate, ip, Kidney, 4 h, IP 20 mg/kg, read-out: Plasma or Tissue Homogenate Conc (individual animals)): 314 ng/mL; concentration at 8 h (male, C57BL/6 J, kidney homogenate, ip, Kidney, 8 h, IP 20 mg/kg, read-out: Mean Plasma or Tissue Homogenate Conc): 196 ng/mL; concentration at 8 h (male, C57BL/6 J, kidney homogenate, ip, Kidney, 8 h, IP 20 mg/kg, read-out: Plasma or Tissue Homogenate Conc (individual animals)): 153 ng/mL; concentration at 0.5 h (male, C57BL/6J, kidney, ip, Kidney, 0.5 h, IP 20 mg/kg, read-out: Mean Tissue): 9830 ng/g; concentration at 1 h (male, C57BL/6 J, kidney, ip, Kidney, 1 h, IP 20 mg/kg, read-out: Mean Tissue): 8510 ng/g; concentration at 2 h (male, C57BL/6 J, kidney, ip, Kidney, 2 h, IP 20 mg/kg, read-out: Mean Tissue): 4070 ng/g
